Test results from patent publication US4684664A, “Derivatives of β-(4-isocyano-1,2,3,4-diepoxycyclopentyl) acrylic acid” (Kureha Kagaku Kogyo Kabushiki Kaisha, priority 1984, dated 1987).
Converted amounts (≈) assume the structure as drawn.

What was measured:
Type in all cases: cell-based
[1] = tested on: Streptococcus pyogenes Cook; assay: Antibacterial activity, agar-dilution MIC, organism No. 4; settings: Streptococcus pyogenes; Organism No. 4, bouillon-agar; read-out: Minimum Inhibitory Concentration
In short: (§1)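 Specimen is incorporated into bouillon-agar medium at graded levels and the organisms are tested on these plates. The lowest level preventing growth is taken as the MIC (μg/ml of medium).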

[2] = tested on: Micrococcus luteus ATCC 9341; assay: Antibacterial activity, agar-dilution MIC, organism No. 25; settings: Micrococcus luteus, ATCC9341; Organism No. 25, bouillon-agar; read-out: Minimum Inhibitory Concentration
In short: as §1

[3] = tested on: Enterobacter aerogenes ATCC 13048; assay: Antibacterial activity, agar-dilution MIC, organism No. 23; settings: Klebsiella aerogenes, ATCC13048; Organism No. 23, bouillon-agar; read-out: Minimum Inhibitory Concentration
In short: as §1

[4] = tested on: Staphylococcus aureus MS 353; assay: Antibacterial activity, agar-dilution MIC, organism No. 3; settings: Staphylococcus aureus, MS353; Organism No. 3, bouillon-agar; read-out: Minimum Inhibitory Concentration
In short: as §1

[5] = tested on: Streptococcus pyogenes IFO 3340; assay: Antibacterial activity, agar-dilution MIC, organism No. 26; settings: Streptococcus pyogenes, IFO3340; Organism No. 26, bouillon-agar; read-out: Minimum Inhibitory Concentration
In short: as §1

[6] = tested on: Streptococcus faecium IFO 3826; assay: Antibacterial activity, agar-dilution MIC, organism No. 27; settings: Enterococcus faecium, IFO3826; Organism No. 27, bouillon-agar; read-out: Minimum Inhibitory Concentration
In short: as §1

[7] = tested on: Klebsiella pneumoniae PCI-602; assay: Antibacterial activity, agar-dilution MIC, organism No. 7; settings: Klebsiella pneumoniae, PCI602; Organism No. 7, bouillon-agar; read-out: Minimum Inhibitory Concentration
In short: as §1

[8] = tested on: Escherichia coli NIHJ-JC-2; assay: Antibacterial activity, agar-dilution MIC, organism No. 5; settings: Escherichia coli, NIHJJC2; Organism No. 5, bouillon-agar; read-out: Minimum Inhibitory Concentration
In short: as §1

[9] = tested on: Enterobacter cloacae 963; assay: Antibacterial activity, agar-dilution MIC, organism No. 24; settings: Enterobacter cloacae, 963; Organism No. 24, bouillon-agar; read-out: Minimum Inhibitory Concentration
In short: as §1

[10] = tested on: Salmonella typhimurium IID 971; assay: Antibacterial activity, agar-dilution MIC, organism No. 8; settings: Salmonella enterica; Organism No. 8, bouillon-agar; read-out: Minimum Inhibitory Concentration
In short: as §1

[11] = tested on: Serratia marcescens IAM 1184; assay: Antibacterial activity, agar-dilution MIC, organism No. 13; settings: Serratia marcescens, IAM1184; Organism No. 13, bouillon-agar; read-out: Minimum Inhibitory Concentration
In short: as §1

[12] = tested on: Candida albicans IAM 4905; assay: Antifungal activity, agar-dilution MIC, organism No. 29; settings: Candida albicans, IAM4905; Organism No. 29, bouillon-agar; read-out: Minimum Inhibitory Concentration
In short: as §1

[13] = tested on: Proteus vulgaris HX-19; assay: Antibacterial activity, agar-dilution MIC, organism No. 21; settings: Proteus vulgaris, HX19; Organism No. 21, bouillon-agar; read-out: Minimum Inhibitory Concentration
In short: as §1

[14] = tested on: Salmonella typhi 901; assay: Antibacterial activity, agar-dilution MIC, organism No. 9; settings: Salmonella enterica, TYPHI, read-out: Minimum Inhibitory Concentration
In short: as §1

[15] = tested on: Escherichia coli K12 C600 IAM 1264; assay: Antibacterial activity, agar-dilution MIC, organism No. 6; settings: Escherichia coli, IAM1264; Organism No. 6, bouillon-agar; read-out: Minimum Inhibitory Concentration
In short: as §1

[16] = tested on: Staphylococcus aureus Terajima; assay: Antibacterial activity, agar-dilution MIC, organism No. 2; settings: Staphylococcus aureus; Organism No. 2, bouillon-agar; read-out: Minimum Inhibitory Concentration
In short: as §1

[17] = tested on: Proteus mirabilis IFO 3849; assay: Antibacterial activity, agar-dilution MIC, organism No. 19; settings: Proteus mirabilis, IFO3849; Organism No. 19, bouillon-agar; read-out: Minimum Inhibitory Concentration
In short: as §1

[18] = tested on: Mycoplasma pneumoniae IID817; assay: Antimycoplasmal activity, MIC by phenol red colour change, organism No. 28; settings: Mycoplasma, IID817; Organism No. 28, PPLO broth + 1% glucose, 37° C.; read-out: Minimum Inhibitory Concentration (MIC)
Description: Mycoplasma pneumoniae IID817 was used as the test microorganism in a culture medium prepared by adding 1% of glucose to "PPLO broth (manufactured by Difco Co.) liquid culture medium" at 37° C. with phenol red as an indicator, thereby culturing the test microorganism.

[19] = tested on: Pseudomonas aeruginosa PAO 1; assay: Antibacterial activity, agar-dilution MIC, organism No. 17; settings: Pseudomonas aeruginosa, PAO1; Organism No. 17, bouillon-agar; read-out: Minimum Inhibitory Concentration
In short: as §1

[20] = tested on: Salmonella shottmuelleri 8006; assay: Antibacterial activity, agar-dilution MIC, organism No. 11; settings: Salmonella, 8006; Organism No. 11, bouillon-agar; read-out: Minimum Inhibitory Concentration
In short: as §1

[21] = tested on: Salmonella enteritidis G 14; assay: Antibacterial activity, agar-dilution MIC, organism No. 12; settings: Salmonella enterica, ENTERITIDIS; Organism No. 12, bouillon-agar; read-out: Minimum Inhibitory Concentration
In short: as §1

[22] = tested on: Salmonella paratyphi-A 1015; assay: Antibacterial activity, agar-dilution MIC, organism No. 10; settings: Salmonella enterica, PARATYPHI, read-out: Minimum Inhibitory Concentration
In short: as §1

[23] = tested on: Aspergillus niger IFO 6342; assay: Antifungal activity, agar-dilution MIC, organism No. 30; settings: Aspergillus niger, IFO6342; Organism No. 30, bouillon-agar; read-out: Minimum Inhibitory Concentration
In short: as §1

[24] = tested on: Bacillus subtilis ATCC 6633; assay: Antibacterial activity, agar-dilution MIC, organism No. 14; settings: Bacillus subtilis, ATCC6633; Organism No. 14, bouillon-agar; read-out: Minimum Inhibitory Concentration
In short: as §1

[25] = tested on: Staphylococcus aureus FDA 209PJc-1; assay: Antibacterial activity, agar-dilution MIC, organism No. 1; settings: Staphylococcus aureus, FDA209PJC1; Organism No. 1, bouillon-agar; read-out: Minimum Inhibitory Concentration
In short: as §1

[26] = tested on: Pseudomonas aeruginosa IFO 3445; assay: Antibacterial activity, agar-dilution MIC, organism No. 15; settings: Pseudomonas aeruginosa, IFO3445; Organism No. 15, bouillon-agar; read-out: Minimum Inhibitory Concentration
In short: as §1

[27] = tested on: Proteus morganii IFO 3848; assay: Antibacterial activity, agar-dilution MIC, organism No. 18; settings: Morganella morganii, IFO3848; Organism No. 18, bouillon-agar; read-out: Minimum Inhibitory Concentration
In short: as §1

[28] = tested on: Proteus vulgaris OX-19; assay: Antibacterial activity, agar-dilution MIC, organism No. 20; settings: Proteus vulgaris, OX19; Organism No. 20, bouillon-agar; read-out: Minimum Inhibitory Concentration
In short: as §1

[29] = tested on: Proteus rettgeri IFO 3850; assay: Antibacterial activity, agar-dilution MIC, organism No. 22; settings: Providencia rettgeri, IFO3850; Organism No. 22, bouillon-agar; read-out: Minimum Inhibitory Concentration
In short: as §1

[30] = tested on: Pseudomonas aeruginosa NCTC 10490; assay: Antibacterial activity, agar-dilution MIC, organism No. 16; settings: Pseudomonas aeruginosa, NCTC10490; Organism No. 16, bouillon-agar; read-out: Minimum Inhibitory Concentration
In short: as §1

| Structure (SMILES) | MIC [1] [µg/mL] | MIC [2] [µg/mL] | MIC [3] [µg/mL] | MIC [4] [µg/mL] | MIC [5] [µg/mL] | MIC [6] [µg/mL] | MIC [7] [µg/mL] | MIC [8] [µg/mL] | MIC [9] [µg/mL] | MIC [10] [µg/mL] | MIC [11] [µg/mL] | MIC [12] [µg/mL] | MIC [13] [µg/mL] | MIC [14] [µg/mL] | MIC [15] [µg/mL] | MIC [16] [µg/mL] | MIC [17] [µg/mL] | MIC [18] [µg/mL] | MIC [19] [µg/mL] | MIC [20] [µg/mL] | other results |
| --- | --- | --- | --- | --- | --- | --- | --- | --- | --- | --- | --- | --- | --- | --- | --- | --- | --- | --- | --- | --- | --- |
| [C-]#[N+]C12CC3(/C=C/C(=O)Nc4cccc(N)c4)OC3C1O2 (stereo not drawn) [compound 60] | 25 (≈ 88.2 µM) | 0.39 (≈ 1.38 µM) | > 200 | 3.13 (≈ 11 µM) | 3.13 (≈ 11 µM) | 50 (≈ 176 µM) | 1.56 (≈ 5.51 µM) | 25 (≈ 88.2 µM) | 200 (≈ 706 µM) | 12.5 (≈ 44.1 µM) | 200 (≈ 706 µM) | 25 (≈ 88.2 µM) | 0.39 (≈ 1.38 µM) | 3.13 (≈ 11 µM) | 25 (≈ 88.2 µM) | 12.5 (≈ 44.1 µM) | > 200 | < 0.2 | > 200 | 3.13 (≈ 11 µM) | MIC [21]: 6.25 µg/mL (≈ 22.1 µM); MIC [22]: 3.13 µg/mL (≈ 11 µM); MIC [23]: 100 µg/mL (≈ 353 µM); MIC [24]: 12.5 µg/mL (≈ 44.1 µM); MIC [25]: 3.13 µg/mL (≈ 11 µM); MIC [26]: > 200 µg/mL; MIC [27]: 1.56 µg/mL (≈ 5.51 µM); MIC [28]: 0.39 µg/mL (≈ 1.38 µM); MIC [29]: > 200 µg/mL; MIC [30]: > 200 µg/mL |
| [C-]#[N+]C12CC3(/C=C/C(=O)Nc4ccccc4C(N)=O)OC3C1O2 (stereo not drawn) [compound 62] | > 200 | 25 (≈ 80.3 µM) | > 200 | 12.5 (≈ 40.2 µM) | 6.25 (≈ 20.1 µM) | > 200 | 3.13 (≈ 10.1 µM) | > 200 | > 200 | 50 (≈ 161 µM) | > 200 | 100 (≈ 321 µM) | 3.13 (≈ 10.1 µM) | 25 (≈ 80.3 µM) | > 200 | 50 (≈ 161 µM) | > 200 | < 0.2 | > 200 | 25 (≈ 80.3 µM) | MIC [21]: 50 µg/mL (≈ 161 µM); MIC [22]: 25 µg/mL (≈ 80.3 µM); MIC [23]: 100 µg/mL (≈ 321 µM); MIC [24]: 25 µg/mL (≈ 80.3 µM); MIC [25]: 12.5 µg/mL (≈ 40.2 µM); MIC [26]: > 200 µg/mL; MIC [27]: 12.5 µg/mL (≈ 40.2 µM); MIC [28]: 3.13 µg/mL (≈ 10.1 µM); MIC [29]: > 200 µg/mL; MIC [30]: > 200 µg/mL |
